# Active and inactive are the calls of the source. The calls are words filed in the database; no cut-off is given here.
# Tests used:
# [1] = biological target: Misshapen-like kinase 1 (Homo sapiens) (UniProt Q8N4C8); experiment: Inhibition of recombinant human N-terminal GST-tagged MINK1 (1 to 320 residues) expressed in baculovirus infected Sf21 cells assessed as remaining activity at 1 uM using MBP as substrate incubated for 30 mins in presence of [gamma-33P]ATP by filter binding method relative to control
# [2] = biological target: Muscle, skeletal receptor tyrosine-protein kinase (Homo sapiens) (UniProt O15146); experiment: Inhibition of human MUSK at 1 uM using poly(Ala,Glu,Lys,Tyr) as substrate in presence of 33P-ATP by ProQinase assay
# [3] = biological target: Eukaryotic translation initiation factor 2-alpha kinase 3 (Homo sapiens) (UniProt Q9NZJ5); experiment: Inhibition of recombinant human N-terminal GST-tagged EIF2AK3 (536 to 1116 residues) expressed in Escherichia coli assessed as remaining activity at 1 uM using MBP as substrate incubated for 30 mins in presence of [gamma-33P]ATP by filter binding method relative to control
# [4] = biological target: Mitogen-activated protein kinase 8 (Homo sapiens) (UniProt P45983); experiment: Inhibition of recombinant human His6-tagged JNK1 (1 to 384 residues) expressed in baculovirus infected Sf21 cells assessed as remaining activity at 1 uM using ATF2 as substrate incubated for 30 mins in presence of [gamma-33P]ATP by filter binding method relative to control
# [5] = biological target: Protein kinase C eta type (Homo sapiens) (UniProt P24723); experiment: Inhibition of human PKCeta at 1 uM using histon H2B as substrate in presence of 33P-ATP by ProQinase assay
# [6] = biological target: Mitogen-activated protein kinase kinase kinase 20 (Homo sapiens) (UniProt Q9NYL2); experiment: Inhibition of human ZAK at 1 uM using MBP as substrate in presence of 33P-ATP by ProQinase assay
# [7] = biological target: Fibroblast growth factor receptor 2 (Homo sapiens) (UniProt P21802); experiment: Inhibition of human FGFR2 at 1 uM using polyEY as substrate in presence of 33P-ATP by ProQinase assay
# [8] = biological target: Homeodomain-interacting protein kinase 4 (Homo sapiens) (UniProt Q8NE63); experiment: Inhibition of human HIPK4 at 1 uM using RBER-IRStide as substrate in presence of 33P-ATP by ProQinase assay
# [9] = biological target: Cyclin-dependent kinase 4/cyclin D1 (Homo sapiens) (UniProt P11802+P24385); experiment: Inhibition of human CDK4/CyclinD1 at 1 uM using RBER-CHKtide, as substrate in presence of 33P-ATP by ProQinase assay; assay type: protein-complex assay
# [10] = biological target: Ribosomal protein S6 kinase alpha-1 (Homo sapiens) (UniProt Q15418); experiment: Inhibition of recombinant human N-terminal His6-tagged RSK1 (1 to 735 residues) expressed in baculovirus infected Sf21 cells assessed as remaining activity at 1 uM using KKLNRTLSVA as substrate incubated for 30 mins in presence of [gamma-33P]ATP by filter binding method relative to control
# [11] = biological target: MAP kinase-activated protein kinase 2 (Homo sapiens) (UniProt P49137); experiment: Inhibition of human MAPKAPK2 at 1 uM using RBER-CHKtide as substrate in presence of 33P-ATP by ProQinase assay
# [12] = biological target: Serine/threonine-protein kinase PAK 1 (Homo sapiens) (UniProt Q13153); experiment: Inhibition of human PAK1 at 1 uM using RBER-CHKtide as substrate in presence of 33P-ATP by ProQinase assay
# [13] = biological target: Macrophage colony-stimulating factor 1 receptor (Homo sapiens) (UniProt P07333); experiment: Inhibition of human CSF1R at 1 uM using polyEY as substrate in presence of 33P-ATP by ProQinase assay
# [14] = biological target: Serine/threonine-protein kinase N2 (Homo sapiens) (UniProt Q16513); experiment: Inhibition of human PRK2 at 1 uM using RBER-CHKtide as substrate in presence of 33P-ATP by ProQinase assay
# [15] = biological target: Serine/threonine-protein kinase D1 (Homo sapiens) (UniProt Q15139); experiment: Inhibition of human PKCmu at 1 uM using RBER-CHKtide as substrate in presence of 33P-ATP by ProQinase assay
# [16] = biological target: Ephrin type-A receptor 5 (Homo sapiens) (UniProt P54756); experiment: Inhibition of human EPHA5 at 1 uM using polyEY as substrate in presence of 33P-ATP by ProQinase assay
# [17] = biological target: Phosphatidylinositol 4,5-bisphosphate 3-kinase catalytic subunit delta isoform (Homo sapiens) (UniProt O00329); experiment: Inhibition of p100delta (unknown origin) at 1 uM
# [18] = biological target: Angiopoietin-1 receptor (Homo sapiens) (UniProt Q02763); experiment: Inhibition of human TIE2 at 1 uM using polyEY as substrate in presence of 33P-ATP by ProQinase assay
# [19] = biological target: cGMP-dependent protein kinase 1 (Homo sapiens) (UniProt Q13976); experiment: Inhibition of human PRKG1 at 1 uM using 3xChocktide-PKC as substrate in presence of 33P-ATP by ProQinase assay
# [20] = biological target: Bone morphogenetic protein receptor type-1A (Homo sapiens) (UniProt P36894); experiment: Inhibition of human BMPR1A at 1 uM using casein as substrate in presence of 33P-ATP by ProQinase assay
# [21] = biological target: Serine/threonine-protein kinase 4 (Homo sapiens) (UniProt Q13043); experiment: Inhibition of human MST1 at 1 uM using RB-CTF as substrate in presence of 33P-ATP by ProQinase assay
# [22] = biological target: Tyrosine-protein kinase BTK (Homo sapiens) (UniProt Q06187); experiment: Inhibition of human BTK at 1 uM using polyEY as substrate in presence of 33P-ATP by ProQinase assay
# [23] = biological target: Serine/threonine-protein kinase Nek7 (Homo sapiens) (UniProt Q8TDX7); experiment: Inhibition of human NEK7 at 1 uM using casein as substrate in presence of 33P-ATP by ProQinase assay
# [24] = biological target: Tyrosine-protein kinase ABL2 (Homo sapiens) (UniProt P42684); experiment: Inhibition of human ABL2 at 1 uM using poly(Ala,Glu,Lys,Tyr) as substrate in presence of 33P-ATP by ProQinase assay
# [25] = biological target: Ephrin type-B receptor 1 (Homo sapiens) (UniProt P54762); experiment: Inhibition of human EPHB1 at 1 uM using polyEY as substrate in presence of 33P-ATP by ProQinase assay
# [26] = biological target: Casein kinase I isoform gamma-2 (Homo sapiens) (UniProt P78368); experiment: Inhibition of recombinant human N-terminal GST-tagged CK1g2 (1 to 415 residues) expressed in Escherichia coli assessed as remaining activity at 1 uM using RRKDLHDDEEDEAMSITA as substrate incubated for 30 mins in presence of [gamma-33P]ATP by filter binding method relative to control
# [27] = biological target: Proto-oncogene tyrosine-protein kinase ROS (Homo sapiens) (UniProt P08922); experiment: Inhibition of human ROS at 1 uM using poly(Ala,Glu,Lys,Tyr) as substrate in presence of 33P-ATP by ProQinase assay
# Sequence of Serine/threonine-protein kinase 4 (Homo sapiens) (Q13043 whole entry): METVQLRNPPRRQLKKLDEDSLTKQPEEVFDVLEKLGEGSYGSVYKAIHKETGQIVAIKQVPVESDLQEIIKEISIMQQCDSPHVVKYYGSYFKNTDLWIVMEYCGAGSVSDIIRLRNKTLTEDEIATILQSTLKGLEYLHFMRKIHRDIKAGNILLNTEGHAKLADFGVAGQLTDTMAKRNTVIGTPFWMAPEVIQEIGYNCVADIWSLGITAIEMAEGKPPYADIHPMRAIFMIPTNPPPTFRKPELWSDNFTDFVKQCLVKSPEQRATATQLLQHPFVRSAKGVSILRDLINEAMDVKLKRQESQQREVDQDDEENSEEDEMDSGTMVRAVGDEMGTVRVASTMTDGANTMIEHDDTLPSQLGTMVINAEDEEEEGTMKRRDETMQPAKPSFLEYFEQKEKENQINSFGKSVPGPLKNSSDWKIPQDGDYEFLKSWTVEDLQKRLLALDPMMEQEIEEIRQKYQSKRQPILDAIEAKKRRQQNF
# Sequence of Tyrosine-protein kinase ABL2 (Homo sapiens) (P42684 whole entry): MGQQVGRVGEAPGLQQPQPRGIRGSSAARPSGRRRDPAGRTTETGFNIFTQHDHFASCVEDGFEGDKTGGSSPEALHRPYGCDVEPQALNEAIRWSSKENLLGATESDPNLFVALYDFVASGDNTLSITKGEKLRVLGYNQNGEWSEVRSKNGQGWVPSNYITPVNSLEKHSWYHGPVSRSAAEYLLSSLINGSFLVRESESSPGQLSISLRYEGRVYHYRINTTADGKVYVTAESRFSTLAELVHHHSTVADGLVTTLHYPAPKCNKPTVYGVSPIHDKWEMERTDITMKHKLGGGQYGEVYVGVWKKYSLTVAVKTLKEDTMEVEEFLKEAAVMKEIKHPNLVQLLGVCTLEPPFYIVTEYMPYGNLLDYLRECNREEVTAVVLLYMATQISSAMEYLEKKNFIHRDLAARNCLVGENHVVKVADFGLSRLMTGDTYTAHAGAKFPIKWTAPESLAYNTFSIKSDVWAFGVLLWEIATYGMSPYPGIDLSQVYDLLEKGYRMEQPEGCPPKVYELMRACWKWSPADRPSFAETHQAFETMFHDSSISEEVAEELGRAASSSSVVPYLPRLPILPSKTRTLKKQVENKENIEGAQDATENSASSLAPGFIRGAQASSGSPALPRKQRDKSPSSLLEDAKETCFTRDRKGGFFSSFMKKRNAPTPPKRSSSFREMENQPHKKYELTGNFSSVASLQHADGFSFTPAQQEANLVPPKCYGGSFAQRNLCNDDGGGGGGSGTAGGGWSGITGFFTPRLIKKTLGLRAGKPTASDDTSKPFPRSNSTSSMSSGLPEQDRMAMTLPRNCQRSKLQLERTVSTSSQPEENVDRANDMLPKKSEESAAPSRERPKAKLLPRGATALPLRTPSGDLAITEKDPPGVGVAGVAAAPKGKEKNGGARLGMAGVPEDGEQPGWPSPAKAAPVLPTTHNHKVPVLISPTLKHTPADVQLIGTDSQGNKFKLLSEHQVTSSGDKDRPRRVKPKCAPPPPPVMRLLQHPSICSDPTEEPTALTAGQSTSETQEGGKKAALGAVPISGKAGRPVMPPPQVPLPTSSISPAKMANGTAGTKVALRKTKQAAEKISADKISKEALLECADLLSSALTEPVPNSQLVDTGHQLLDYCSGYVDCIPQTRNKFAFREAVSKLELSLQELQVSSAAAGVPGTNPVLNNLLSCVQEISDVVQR
# Sequence of Ribosomal protein S6 kinase alpha-1 (Homo sapiens) (Q15418 whole entry, the tested form may be a part): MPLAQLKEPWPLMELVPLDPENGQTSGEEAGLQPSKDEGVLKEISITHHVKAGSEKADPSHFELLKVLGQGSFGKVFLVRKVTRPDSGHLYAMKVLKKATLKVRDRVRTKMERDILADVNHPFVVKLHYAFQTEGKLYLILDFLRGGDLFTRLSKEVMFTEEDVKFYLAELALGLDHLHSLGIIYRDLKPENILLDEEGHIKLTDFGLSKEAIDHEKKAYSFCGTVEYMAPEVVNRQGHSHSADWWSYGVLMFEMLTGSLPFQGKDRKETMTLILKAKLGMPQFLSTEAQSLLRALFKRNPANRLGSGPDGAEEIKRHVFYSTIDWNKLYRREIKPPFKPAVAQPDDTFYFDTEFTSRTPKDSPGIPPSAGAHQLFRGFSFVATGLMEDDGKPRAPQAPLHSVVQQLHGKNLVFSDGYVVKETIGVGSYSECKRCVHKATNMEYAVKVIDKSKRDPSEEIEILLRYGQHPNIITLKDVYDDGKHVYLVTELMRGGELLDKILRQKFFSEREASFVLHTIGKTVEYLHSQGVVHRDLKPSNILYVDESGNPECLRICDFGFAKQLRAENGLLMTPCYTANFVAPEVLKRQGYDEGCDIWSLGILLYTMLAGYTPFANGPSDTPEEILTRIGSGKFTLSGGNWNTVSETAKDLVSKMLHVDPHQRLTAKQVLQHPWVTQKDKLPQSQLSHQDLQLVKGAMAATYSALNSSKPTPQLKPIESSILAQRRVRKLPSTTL
# Sequence of Tyrosine-protein kinase BTK (Homo sapiens) (Q06187 whole entry): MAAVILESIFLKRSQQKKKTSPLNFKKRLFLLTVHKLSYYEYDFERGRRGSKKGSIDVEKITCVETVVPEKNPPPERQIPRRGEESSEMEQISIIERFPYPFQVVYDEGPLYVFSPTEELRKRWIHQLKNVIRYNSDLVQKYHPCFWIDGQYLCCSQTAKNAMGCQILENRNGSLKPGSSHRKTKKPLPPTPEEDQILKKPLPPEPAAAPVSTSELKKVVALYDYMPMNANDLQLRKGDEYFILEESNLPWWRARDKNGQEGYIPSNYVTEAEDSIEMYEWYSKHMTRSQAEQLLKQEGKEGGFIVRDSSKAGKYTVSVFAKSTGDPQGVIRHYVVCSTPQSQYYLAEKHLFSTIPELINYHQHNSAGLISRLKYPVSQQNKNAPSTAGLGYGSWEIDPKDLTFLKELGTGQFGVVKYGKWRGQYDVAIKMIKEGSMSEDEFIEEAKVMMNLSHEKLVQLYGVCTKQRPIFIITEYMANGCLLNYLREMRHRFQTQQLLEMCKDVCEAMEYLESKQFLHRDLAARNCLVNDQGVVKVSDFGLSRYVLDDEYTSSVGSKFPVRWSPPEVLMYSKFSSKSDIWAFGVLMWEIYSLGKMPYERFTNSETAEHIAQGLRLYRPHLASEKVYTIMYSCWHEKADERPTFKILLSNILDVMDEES
# Sequence of Protein kinase C eta type (Homo sapiens) (P24723 whole entry): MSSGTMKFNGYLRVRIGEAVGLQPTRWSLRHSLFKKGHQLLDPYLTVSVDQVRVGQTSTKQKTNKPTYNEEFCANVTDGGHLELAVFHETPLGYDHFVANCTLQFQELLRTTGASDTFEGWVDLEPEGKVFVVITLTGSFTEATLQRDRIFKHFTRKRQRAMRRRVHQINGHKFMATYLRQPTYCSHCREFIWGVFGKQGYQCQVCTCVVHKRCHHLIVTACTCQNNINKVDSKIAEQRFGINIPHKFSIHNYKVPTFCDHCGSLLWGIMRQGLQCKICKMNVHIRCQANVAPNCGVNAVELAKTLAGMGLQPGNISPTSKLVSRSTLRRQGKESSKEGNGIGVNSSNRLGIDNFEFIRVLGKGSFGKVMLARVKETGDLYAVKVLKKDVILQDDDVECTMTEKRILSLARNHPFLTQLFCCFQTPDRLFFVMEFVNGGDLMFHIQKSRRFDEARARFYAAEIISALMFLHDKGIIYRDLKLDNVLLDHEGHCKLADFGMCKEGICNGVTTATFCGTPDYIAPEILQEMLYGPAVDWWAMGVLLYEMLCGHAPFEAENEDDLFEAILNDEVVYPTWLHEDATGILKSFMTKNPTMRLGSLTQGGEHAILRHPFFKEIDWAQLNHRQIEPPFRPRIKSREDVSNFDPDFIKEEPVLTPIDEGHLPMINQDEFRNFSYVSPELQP
# Sequence of Fibroblast growth factor receptor 2 (Homo sapiens) (P21802 22-821 limits assumed): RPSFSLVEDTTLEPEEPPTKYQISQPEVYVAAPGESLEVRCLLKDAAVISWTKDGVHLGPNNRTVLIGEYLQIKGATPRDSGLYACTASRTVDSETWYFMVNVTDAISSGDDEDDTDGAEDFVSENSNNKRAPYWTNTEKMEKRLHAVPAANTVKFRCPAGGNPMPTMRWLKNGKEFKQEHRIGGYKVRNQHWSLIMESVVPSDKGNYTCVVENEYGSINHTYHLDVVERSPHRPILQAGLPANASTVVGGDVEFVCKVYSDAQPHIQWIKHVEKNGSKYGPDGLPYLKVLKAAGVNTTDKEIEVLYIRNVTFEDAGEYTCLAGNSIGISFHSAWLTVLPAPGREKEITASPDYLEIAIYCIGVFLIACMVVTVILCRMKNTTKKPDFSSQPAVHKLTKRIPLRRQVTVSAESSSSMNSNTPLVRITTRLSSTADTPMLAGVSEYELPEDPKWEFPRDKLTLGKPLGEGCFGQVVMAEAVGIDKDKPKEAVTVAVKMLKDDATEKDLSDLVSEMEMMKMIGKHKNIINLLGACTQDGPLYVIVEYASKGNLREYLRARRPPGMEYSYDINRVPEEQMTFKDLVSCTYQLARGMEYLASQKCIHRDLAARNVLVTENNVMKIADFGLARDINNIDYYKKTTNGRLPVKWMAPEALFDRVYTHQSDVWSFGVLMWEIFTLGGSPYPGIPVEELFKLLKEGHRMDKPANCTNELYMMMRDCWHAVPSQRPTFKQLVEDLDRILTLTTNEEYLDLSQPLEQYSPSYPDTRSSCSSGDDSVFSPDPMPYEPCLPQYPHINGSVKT
# Sequence of Mitogen-activated protein kinase 8 (Homo sapiens) (P45983 whole entry, the tested form may be a part): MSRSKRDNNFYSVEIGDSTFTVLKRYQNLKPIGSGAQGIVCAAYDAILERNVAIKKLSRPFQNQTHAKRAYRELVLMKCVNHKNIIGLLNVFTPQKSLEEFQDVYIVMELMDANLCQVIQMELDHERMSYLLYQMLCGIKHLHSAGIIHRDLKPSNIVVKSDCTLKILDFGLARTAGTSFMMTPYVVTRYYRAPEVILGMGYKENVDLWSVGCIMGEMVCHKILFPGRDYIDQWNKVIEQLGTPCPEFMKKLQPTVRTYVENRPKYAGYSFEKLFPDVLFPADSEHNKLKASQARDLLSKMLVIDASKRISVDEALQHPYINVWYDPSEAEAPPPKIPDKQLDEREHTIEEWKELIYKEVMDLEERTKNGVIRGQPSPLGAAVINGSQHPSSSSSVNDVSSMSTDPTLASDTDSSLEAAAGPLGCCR
compound,measurement,setting,value
CC(C)(O)CNc1ncc(-c2ccnc(Nc3ccnc(Cl)c3)n2)c(CC2CC2)n1,Activity,[1],103%
same,inhibition,[2],inactive
same,Activity,[3],125%
same,Activity,[4],112%
same,inhibition,[5],inactive
same,inhibition,[6],inactive
same,inhibition,[7],inactive
same,inhibition,[8],inactive
same,inhibition,[9],inactive
same,Activity,[10],99%
same,inhibition,[11],inactive
same,inhibition,[12],inactive
same,inhibition,[13],inactive
same,inhibition,[14],inactive
same,inhibition,[15],inactive
same,inhibition,[16],inactive
same,inhibition,[17],inactive
same,inhibition,[18],inactive
same,inhibition,[19],inactive
same,inhibition,[20],inactive
same,inhibition,[21],inactive
same,inhibition,[22],inactive
same,inhibition,[23],inactive
same,inhibition,[24],inactive
same,inhibition,[25],inactive
same,Activity,[26],122%
same,inhibition,[27],inactive

# Reference: ChEMBL document CHEMBL5705899 (Biochem J, 2014)
